In brackets after ≈: the same amount, converted by molar mass.

In this experiment the test system is A. baumannii strain ATCC19606. Description: Minimum inhibitory concentration (MIC) determination, microbroth dilution (CLSI). Format: cell-based. The note with it: Acinetobacter baumannii; A. baumannii ATCC19606; CAMHB; read after 20 hours; >=80% growth inhibition; read-out: ATCC19606 MIC. In a few lines: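 CLSI broth microdilution in cation-adjusted Mueller Hinton broth with twofold compound dilutions and ~5×10^5 CFU/ml inoculum, incubated at 35±2 °C. MIC read after 20 h as lowest concentration inhibiting ≥80% of growth, by eye and OD 600 nm.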
(Broth dilution looks for growth in wells or tubes with falling amounts of substance.)
With `CN1C(=O)[C@H](CCCCN)NC(=O)[C@H](CCCN)NCc2ccccc2Sc2cnccc2CNC(=O)[C@@H]1Cc1c[nH]c2ccccc12` [Example 63, (12S,15S,18S)-15-(4-Amino-butyl)-18-(3-amino-propyl)-12-(1H-indol-3-ylmethyl)-13-methyl-2-thia-5,10,13,16,19-pentaaza-tricyclo[19.4.0.0*3,8*]pentacosa-1(25),3,5,7,21,23-hexaene-11,14,17-trione], the MIC (as a rule, the lowest concentration found to suppress growth) turned out to be 32 µg/mL (≈ 47.7 µM).

`CN1C(=O)[C@H](CCCCN)NC(=O)[C@H](CCCN)NCc2cc(F)ccc2Sc2c(Cl)cccc2CNC(=O)[C@@H]1Cc1c[nH]c2ccccc12` [Example 64, (12S,15S,18S)-15-(4-Amino-butyl)-18-(3-amino-propyl)-4-chloro-23-fluoro-12-(1H-indol-3-ylmethyl)-13-methyl-2-thia-10,13,16,19-tetraaza-tricyclo[19.4.0.0*3,8*]pentacosa-1(25),3,5,7,21,23-hexaene-11,14,17-trione]: the MIC amounted to 32 µg/mL (≈ 44.3 µM).

As to `Cc1cccc2c1Sc1ccc(F)cc1CN[C@@H](CCCN)C(=O)N[C@@H](CCCCN)C(=O)N(C)[C@@H](Cc1c[nH]c3ccccc13)C(=O)NC2` [Example 65, (12S,15S,18S)-15-(4-Amino-butyl)-18-(3-amino-propyl)-23-fluoro-12-(1H-indol-3-ylmethyl)-4,13-dimethyl-2-thia-10,13,16,19-tetraaza-tricyclo[19.4.0.0*3,8*]pentacosa-1(25),3,5,7,21,23-hexaene-11,14,17-trione], the MIC was determined as 32 µg/mL (≈ 45.6 µM).

As to `CCc1ccc2c(c1)CNC(=O)[C@H](Cc1c[nH]c3ccccc13)N(C)C(=O)[C@H](CCCCN)NC(=O)[C@H](CCCN)NCc1ccccc1S2` [Example 66, (12S,15S,18S)-15-(4-Amino-butyl)-18-(3-amino-propyl)-6-ethyl-12-(1H-indol-3-ylmethyl)-13-methyl-2-thia-10,13,16,19-tetraaza-tricyclo[19.4.0.0*3,8*]pentacosa-1(25),3,5,7,21,23-hexaene-11,14,17-trione], the minimum inhibitory concentration (MIC) came to 0.5 µg/mL (≈ 0.716 µM).

Take `CN1C(=O)[C@H](CCCCN)NC(=O)[C@H](CCCN)NCc2cccnc2Sc2c(Cl)cc(Cl)cc2CNC(=O)[C@@H]1Cc1c[nH]c2ccccc12` [Example 67, (11S,14S,17S)-14-(4-Amino-butyl)-11-(3-amino-propyl)-23,25-dichloro-17-(1H-indol-3-ylmethyl)-16-methyl-2-thia-4,10,13,16,19-pentaaza-tricyclo[19.4.0.0*3,8*]pentacosa-1(25),3,5,7,21,23-hexaene-12,15,18-trione]: the MIC was determined as 0.12 µg/mL (≈ 0.162 µM).

As for `CN1C(=O)[C@H](CCCCN)NC(=O)[C@H](CCCN)NCc2cccnc2Sc2c(C(F)(F)F)ccc(Cl)c2CNC(=O)[C@@H]1Cc1c[nH]c2ccccc12` [Example 68, (11S,14S,17S)-14-(4-Amino-butyl)-11-(3-amino-propyl)-22-chloro-17-(1H-indol-3-ylmethyl)-16-methyl-25-trifluoromethyl-2-thia-4,10,13,16,19-pentaaza-tricyclo[19.4.0.0*3,8*]pentacosa-1(25),3,5,7,21,23-hexaene-12,15,18-trione], the MIC is 0.5 µg/mL (≈ 0.647 µM).

`CN1C(=O)[C@H](CCCCN)NC(=O)[C@H](CCCN)NCc2ccccc2Sc2ccc(-c3ccccc3)cc2CNC(=O)[C@@H]1Cc1c[nH]c2ccccc12` [Example 69, (12S,15S,18S)-15-(4-Amino-butyl)-18-(3-amino-propyl)-12-(1H-indol-3-ylmethyl)-13-methyl-6-phenyl-2-thia-10,13,16,19-tetraaza-tricyclo[19.4.0.0*3,8*]pentacosa-1(25),3,5,7,21,23-hexaene-11,14,17-trione]: the MIC was determined as 4 µg/mL (≈ 5.36 µM).

Take `CN1C(=O)[C@H](CCCCN)NC(=O)[C@H](CCCN)NCc2ccccc2Sc2ccc(C(C)(C)C)cc2CNC(=O)[C@@H]1Cc1c[nH]c2ccccc12` [Example 70, (12S,15S,18S)-15-(4-Amino-butyl)-18-(3-amino-propyl)-6-tert-butyl-12-(1H-indol-3-ylmethyl)-13-methyl-2-thia-10,13,16,19-tetraaza-tricyclo[19.4.0.0*3,8*]pentacosa-1(25),3,5,7,21,23-hexaene-11,14,17-trione]: the MIC was 2 µg/mL (≈ 2.75 µM).

On to `COc1ccc2c(c1)CNC(=O)[C@H](Cc1c(C)[nH]c3ccccc13)N(C)C(=O)[C@H](CCCCN)NC(=O)[C@H](CCCN)NCc1ccccc1S2` [Example 71, (12S,15S,18S)-15-(4-Amino-butyl)-18-(3-amino-propyl)-6-methoxy-13-methyl-12-(2-methyl-1H-indol-3-ylmethyl)-2-thia-10,13,16,19-tetraaza-tricyclo[19.4.0.0*3,8*]pentacosa-1(21),3,5,7,22,24-hexaene-11,14,17-trione], for which the MIC amounted to 0.5 µg/mL (≈ 0.7 µM).

`CC(C)c1ccc2c(c1)CNC(=O)[C@H](Cc1c[nH]c3ccccc13)N(C)C(=O)[C@H](CCCCN)NC(=O)[C@H](CCCN)NCc1ccccc1S2` [Example 72, (12S,15S,18S)-15-(4-Amino-butyl)-18-(3-amino-propyl)-12-(1H-indol-3-ylmethyl)-6-isopropyl-13-methyl-2-thia-10,13,16,19-tetraaza-tricyclo[19.4.0.0*3,8*]pentacosa-1(25),3,5,7,21,23-hexaene-11,14,17-trione]: the MIC came out at 64 µg/mL (≈ 89.9 µM).

For the molecule `Cc1[nH]c2ccccc2c1C[C@H]1C(=O)NCc2cc(C(F)(F)F)cc(Cl)c2Sc2ncccc2CN[C@@H](CCCN)C(=O)N[C@@H](CCCCN)C(=O)N1C` [Example 74, (11S,14S,17S)-14-(4-Amino-butyl)-11-(3-amino-propyl)-25-chloro-16-methyl-17-(2-methyl-1H-indol-3-ylmethyl)-23-trifluoromethyl-2-thia-4,10,13,16,19-pentaaza-tricyclo[19.4.0.0*3,8*]pentacosa-1(25),3(8),4,6,21,23-hexaene-12,15,18-trione], the MIC came out at 0.25 µg/mL (≈ 0.318 µM).

`Cc1[nH]c2ccccc2c1C[C@H]1C(=O)NCc2c(C(F)(F)F)ccc(Cl)c2Sc2ncccc2CN[C@@H](CCCN)C(=O)N[C@@H](CCCCN)C(=O)N1C` [Example 75, (11S,14S,17S)-14-(4-Amino-butyl)-11-(3-amino-propyl)-25-chloro-16-methyl-17-(2-methyl-1H-indol-3-ylmethyl)-22-trifluoromethyl-2-thia-4,10,13,16,19-pentaaza-tricyclo[19.4.0.0*3,8*]pentacosa-1(25),3(8),4,6,21,23-hexaene-12,15,18-trione]: the MIC is 0.12 µg/mL (≈ 0.152 µM).

Take `Cc1[nH]c2ccccc2c1C[C@H]1C(=O)NCc2cc(Cl)cc(Cl)c2Sc2ncccc2CN[C@@H](CCCN)C(=O)N[C@@H](CCCCN)C(=O)N1C` [Example 76, (11S,14S,17S)-14-(4-Amino-butyl)-11-(3-amino-propyl)-23,25-dichloro-16-methyl-17-(2-methyl-1H-indol-3-ylmethyl)-2-thia-4,10,13,16,19-pentaaza-tricyclo[19.4.0.0*3,8*]pentacosa-1(25),3(8),4,6,21,23-hexaene-12,15,18-trione]: the MIC was 0.12 µg/mL (≈ 0.159 µM).

As to `CCN1C(=O)[C@H](CCCCN)NC(=O)[C@H](CCCN)NCc2cccnc2Sc2c(Cl)cc(C(F)(F)F)cc2CNC(=O)[C@@H]1Cc1c[nH]c2ccccc12` [Example 77, (11S,14S,17S)-14-(4-Amino-butyl)-11-(3-amino-propyl)-25-chloro-16-ethyl-17-(1H-indol-3-ylmethyl)-23-trifluoromethyl-2-thia-4,10,13,16,19-pentaaza-tricyclo[19.4.0.0*3,8*]pentacosa-1(25),3(8),4,6,21,23-hexaene-12,15,18-trione], the MIC stood at 0.5 µg/mL (≈ 0.635 µM).

With `CCN1C(=O)[C@H](CCCCN)NC(=O)[C@H](CCCN)NCc2cccnc2Sc2c(Cl)ccc(Cl)c2CNC(=O)[C@@H]1Cc1c[nH]c2ccccc12` [Example 78, (11S,14S,17S)-14-(4-Amino-butyl)-11-(3-amino-propyl)-22,25-dichloro-16-ethyl-17-(1H-indol-3-ylmethyl)-2-thia-4,10,13,16,19-pentaaza-tricyclo[19.4.0.0*3,8*]pentacosa-1(25),3(8),4,6,21,23-hexaene-12,15,18-trione], the minimum inhibitory concentration (MIC) was determined as 0.25 µg/mL (≈ 0.332 µM).

`CCN1C(=O)[C@H](CCCCN)NC(=O)[C@H](CCCN)NCc2cccnc2Sc2c(Cl)ccc(C(F)(F)F)c2CNC(=O)[C@@H]1Cc1c[nH]c2ccccc12` [Example 79, (11S,14S,17S)-14-(4-Amino-butyl)-11-(3-amino-propyl)-25-chloro-16-ethyl-17-(1H-indol-3-ylmethyl)-22-trifluoromethyl-2-thia-4,10,13,16,19-pentaaza-tricyclo[19.4.0.0*3,8*]pentacosa-1(25),3(8),4,6,21,23-hexaene-12,15,18-trione]: the MIC was 0.25 µg/mL (≈ 0.318 µM).

For `CCN1C(=O)[C@H](CCCCN)NC(=O)[C@H](CCCN)NCc2cccnc2Sc2c(Cl)cc(Cl)cc2CNC(=O)[C@@H]1Cc1c[nH]c2ccccc12` [Example 80, (11S,14S,17S)-14-(4-Amino-butyl)-11-(3-amino-propyl)-23,25-dichloro-16-ethyl-17-(1H-indol-3-ylmethyl)-2-thia-4,10,13,16,19-pentaaza-tricyclo[19.4.0.0*3,8*]pentacosa-1(25),3(8),4,6,21,23-hexaene-12,15,18-trione], the minimal inhibitory concentration (MIC) was found to be 0.12 µg/mL (≈ 0.159 µM).

In the case of `NCCCC[C@@H]1NC(=O)[C@H](CCCN)NCc2cccnc2Sc2c(Cl)cc(Cl)cc2CNC(=O)[C@H](Cc2c[nH]c3ccccc23)NC1=O` [Example 81, (11S,14S,17S)-14-(4-Amino-butyl)-11-(3-amino-propyl)-23,25-dichloro-17-(1H-indol-3-ylmethyl)-2-thia-4,10,13,16,19-pentaaza-tricyclo[19.4.0.0*3,8*1]pentacosa-1(25),3(8),4,6,21,23-hexaene-12,15,18-trione], the MIC was found to be 1 µg/mL (≈ 1.38 µM).

Regarding `NCCCC[C@@H]1NC(=O)[C@H](CCCN)NCc2cccnc2Sc2c(Cl)ccc(Cl)c2CNC(=O)[C@H](Cc2c[nH]c3ccccc23)NC1=O` [Example 82, (11S,14S,17S)-14-(4-Amino-butyl)-11-(3-amino-propyl)-22,25-dichloro-17-(1H-indol-3-ylmethyl)-2-thia-4,10,13,16,19-pentaaza-tricyclo[19.4.0.0*3,8*]pentacosa-1(25),3(8),4,6,21,23-hexaene-12,15,18-trione], the MIC came to 4 µg/mL (≈ 5.51 µM).

The record behind these values is patent US10030047B2 (Hoffmann-La Roche Inc., priority 2015, dated 2018).
